For series [1] the following is noted: cited from earlier work.
A short description of series [2]: Pharmacoscintigraphy regional absorption biostudy with Enterion site-specific delivery capsule, topiramate plasma concentrations. The format is in vivo, human. The settings on record: for Relative Bioavailability (%) Based on AUCinf: 200 mg topiramate API, Enterion capsule, healthy volunteers; for Relative Bioavailability (%) Based on AUCinf / Relative Bioavailability (%) Based on AUClast: vs Trt A; for Lambda / tmax / Relative Bioavailability (%) Based on AUClast / AUCinf / Cmax / half-life / AUC(0-inf) / AUC(0-t): 200 mg; for half-life: read-out: t½ (converted). The protocol: A rational approach to obtain detailed information about how well topiramate is absorbed from the key residence areas of the gastrointestinal tract was conducted using the Enterion® site-specific delivery capsule, which is the subject of U.S. Pat. No. 6,632,216 which is incorporated herein by reference. The Enterion® site-specific delivery capsule is an easy to use non-invasive methodology for assessing regional drug absorption from the gastrointestinal tract. The capsule is 35mm in length and 10-12 mm in diameter and is capable of delivering solutions, suspensions or powders to specific sites. […] The capsules contain a drug chamber with a wide port, and therefore loading of all types of drug formulations into the capsule is relatively straightforward. Capsule activation is confirmed by means of a signal, which is emitted from the capsule when activation occurs and is relayed back to the activation unit.
A pharmacoscintigraphy study of topiramate was conducted at Pharmaceutical Profiles, Nottingham, UK utilizing their Enterion® site-specific delivery capsule technology. This study was designed to obtain detailed information about how well topiramate is absorbed from the key residence areas of the gastrointestinal tract. The examples below are a result of a biostudy that was a randomized, 4-treatment, 4-period study, conducted in 12 healthy volunteers. The test treatments administered using an Enterion® capsule and were as follows: Trt B represents 200 mg topiramate API delivered to the proximal small bowel (PSB), Trt C represents 200 mg topiramate API delivered to the distal small bowel (DSB), Trt D represents 200 mg topiramate API delivered to the colon. The reference treatment administered was Trt A which represents 200 mg topiramate as the commercial immediate release reference formulation, Topamax™. Topiramate plasma concentrations were measured in this study.
Analysis of plasma samples for topiramate was carried out in accordance with Bioanalytical Services Test Method number TM154. The method involves solid phase extraction of topiramate using Oasis HLB extraction cartridges. Topiramate is analysed using LC-MS/MS.
The standard curves for the analytical runs in the study covered the concentration range of 10-1000 ng/mL with a limit of quantitation of 10 ng/mL. All samples were diluted 1:10 prior to analysis.
The following parameters were derived from the plasma concentration data: individual and mean blood drug concentration levels, individual and mean peak levels, Cmax; individual and mean AUClast and AUCinf; individual and mean time to peak concentration, tmax, relative bioavailability of test compared to alternative formulation, Frel (%).

The conditions of series [3]: cited from earlier work. The source holds these as a separate data set.
[4] abbreviates: Trt B, proximal small bowel (PSB).
Where [5] appears, read: Trt B, proximal small bowel (PSB), plasma.
The mark [6] stands for this setting: Trt C, distal small bowel (DSB).
Setting [7] is: human, plasma, Trt B, proximal small bowel (PSB).
The mark [8] stands for this setting: human, plasma, Trt C, distal small bowel (DSB).
Setting [9] is: human, plasma, other: Enterion capsule, delivered to the colon, Trt D, colon, plasma.

SMILES strings stand for the structures. Counter-ions that a name gives are not always drawn. Like-named read-outs stand apart in the source and are kept apart here. Marks after values point to notes of the source that are not given here.

Regarding `CC(C)(N)Cc1ccccc1` [Phentermine hydrochloride, 1,1 -Dimethyl-2-phenethylamine hydrochloride], the solubility entry was “slightly soluble” in series [1] (in chloroform); “insoluble” in series [1] (in ether); “soluble” in series [1] (in water and lower alcohols).

Turning to `CC1(C)O[C@@H]2[C@@H](CO[C@@]3(COS(N)(=O)=O)OC(C)(C)O[C@@H]23)O1` [Topiramate, topiramate], the “Relative Bioavailability (%) Based on AUCinf” value in series [2] (setting [4]) was 120.88 ± 20.20 %; in series [2] (setting [6]) it was 120.99 ± 25.31$ %; in series [2] (Trt D, colon), 111.85 ± 19.41^ %. The Lambda in series [2] (setting [4]) was 0.02 ± 0.01˜ h^−1; in series [2] (setting [6]) it was 0.03 ± 0.01 h⁻¹; in series [2] (Trt D, colon) it was 0.03 ± 0.01* h^−1. Further, the tmax in series [2] (setting [4]) was 2.08 ± 1.08 h; in series [2] (setting [6]), 3.64 ± 4.20 h; in series [2] (Trt D, colon), 11.85 ± 7.44 h; in series [2] (human, plasma, Trt B, proximal small bowel (PSB), read-out: tmax) it was 2.1 ± 1.1 h; in series [2] (human, plasma, Trt C, distal small bowel (DSB), read-out: tmax) it was 3.6 ± 4.2 h; in series [2] (human, plasma, other: Enterion capsule, delivered to the colon, Trt D, colon, read-out: tmax), 11.8 ± 7.4 h. For the same compound, the “Relative Bioavailability (%) Based on AUClast” value in series [2] (setting [4]) is 113.06 ± 19.46 %; in series [2] (setting [6]), 125.69 ± 27.18˜ %; in series [2] (Trt D, colon) it was 107.14 ± 22.73˜ %. Also, the AUCinf in series [2] (setting [5]) is 192140.44 ± 33798.87˜ ng/mL · h; in series [2] (Trt C, distal small bowel (DSB), plasma) it was 193203.21 ± 57012.26 ng·h/mL; in series [2] (Trt D, colon, plasma), 181462.53 ± 46104.28 ng·h/mL. For the same compound, the Cmax turned out to be 5255.66 ± 1870.32 ng/mL in series [2] (setting [5]); 3878.07 ± 1267.71 ng/mL in series [2] (Trt D, colon, plasma); 5260 ± 1870 ng/mL in series [2] (human, plasma, Trt B, proximal small bowel (PSB), plasma, read-out: Cmax); 4970 ± 1200 ng/mL in series [2] (human, plasma, Trt C, distal small bowel (DSB), plasma, read-out: Cmax); 3880 ± 1270 ng/mL in series [2] (human, plasma, other: Enterion capsule, delivered to the colon, Trt D, colon, plasma, read-out: Cmax). Also, the enhanced bioavailability result in series [2] (administered in the small or large intestine as compared to oral immediate release tablets) is “approximately 20%”. Also, the half-life in series [2] (setting [7]) was 32.7 ± 9.7 h; in series [2] (setting [8]) it was 24.5 ± 6.18 h; in series [2] (human, plasma, other: Enterion capsule, delivered to the colon, Trt D, colon), 24.9 ± 5.2 h. Further, the AUC(0-inf) in series [2] (setting [7]) was found to be 192 ± 33.8 µg·h/mL; in series [2] (setting [8]) it was 193 ± 57 µg·h/mL; in series [2] (setting [9]), 181 ± 46.1 µg·h/mL. For the same compound, the AUC(0-t) in series [2] (setting [7]) was determined as 150 ± 37.9 µg·h/mL; in series [2] (setting [8]), 160 ± 38.5 µg·h/mL; in series [2] (setting [9]), 140 ± 40.7 µg·h/mL. For the same compound, in series [3] (P-450 microsomal enzyme system), the “metabolized in the liver” value is 15%. Also, in series [3] (following a 400 mg oral dose), the “time to peak blood levels” value was “about 2 hours”. Besides, the Plasma protein binding result in series [3] (in vivo) is “approximately 15%”. In series [3] (in vivo), the “excreted unchanged in the urine” value is “about 85%”. For the same compound, the bioavailability in series [3] (oral administration) was roughly 100%.

The Cmax is the maximum level reached in the sampled fluid or tissue. Broadly, the AUC(0-inf) is total exposure, with the tail of the curve extrapolated. A low value points to low exposure. One may read the AUC(0-t) as exposure summed from dosing to a finite time, without extrapolation to infinity. As usually defined, the bioavailability is the share of a dose that reaches the circulation, judged against a reference dose that is usually intravenous.

The values are drawn from US20060121112A1, “Topiramate pharmaceutical composition” (Elan Corporation, plc, priority 2004, published 2006).
